Key:
HT-29 = experiment: In vitro antiproliferative activity (MTT), HT-29; type: cell-based; conditions: Homo sapiens, tumor cell proliferation, 72 h, mean ± SE
Procedure: Human T-cell leukemia (CCRF-CEM and Jurkat) and human B-cell leukemia (SEM) cells were grown in RPMI-1640 medium (Gibco, Milano, Italy). Breast adenocarcinoma (MCF7), human cervix carcinoma (HeLa), and human colon adenocarcinoma (HT-29) cells were grown in DMEM medium (Gibco, Milano, Italy), all supplemented with 115 units/mL penicillin G (Gibco, Milano, Italy), 115 μg/mL streptomycin (Invitrogen, Milano, Italy), and 10% fetal bovine serum (Invitrogen, Milano, Italy). Stock solutions (10 mM) of the different compounds were obtained by dissolving them in dimethyl sulfoxide (DMSO). Individual wells of a 96-well tissue culture microtiter plate were inoculated with 100 μL of complete medium containing 8 × 10^3 cells. The plates were incubated at 37 °C in a humidified 5% CO2 incubator for 18 h prior to the experiments. After medium removal, 100 μL of fresh medium containing the test compound at different concentrations was added to each well in triplicate and incubated at 37 °C for 72 h. The percentage of DMSO in the medium never exceeded 0.25%. This was also the maximum DMSO concentration in all cell-based assays described below. […] Different concentrations of the test compounds were added, and viability was determined 72 h later by the MTT test. For cytotoxicity evaluations in resting PBL cultures, non-adherent cells were resuspended (5 × 10^5 cells/mL) and treated for 72 h with the test compounds, as described above.

HeLa cells = experiment: Cell cycle distribution by flow cytometry (PI), HeLa; type: cell-based, human
Procedure: The effects of a 24 h treatment with different concentrations of 4o on cell cycle progression in Jurkat, and HeLa cells were determined by flow cytometry, following propidium iodide (PI) staining of the cells (Fig. 4, Panels A,B). […] In the HeLa cells, the G2/M block was accompanied by a significant reduction of both G1 and S phase cells. In order to determine whether 4o was able to block cells at the mitotic phase (M), cells were stained with an immunofluorescent antibody to p-histone H3, a well known mitotic marker, as well as PI, and analyzed by flow cytometry. As shown in Fig. 4 (Panel C), in which representative histograms are presented, Hela cells arrested in M phase by treatment with 4o are readily distinguished from G2 cells by the higher level of p-histone H3. In particular, treatment with 4o induced an increase in the percentage of mitotic cells from the 2% observed in untreated cells to about 30% with both 50 and 100 nM 4o at 24 h (Fig. 4, Panel D).
5 × 10^5 HeLa or Jurkat cells were treated with different concentrations of the test compounds for 24 h. After the incubation period, the cells were collected, centrifuged, and fixed with ice-cold ethanol (70%). […] Samples were analyzed on a Cytomic FC500 flow cytometer (Beckman Coulter). DNA histograms were analyzed using MultiCycle for Windows (Phoenix Flow Systems).

Jurkat = experiment: Annexin-V/PI apoptosis assay, Jurkat; type: cell-based, human; conditions: 24 h, lowest concentration used (50 nM)
Procedure: To evaluate the induction of apoptosis by compound 4o in two cell lines (HeLa and Jurkat), we used an annexin-V/PI assay. Dual staining for annexin-V and with PI permits discrimination between live cells (annexin-V^−/PI^−), early apoptotic cells (annexin-V^+/PI^−), late apoptotic cells (annexin-V^+/PI^+) and necrotic cells (annexin-V^−/PI^+).
Cell death was determined by flow cytometry of cells double stained with annexin V/FITC and PI. The Coulter Cytomics FC500 (Beckman Coulter) was used to measure the surface exposure of phosphatidyl serine on apoptotic cells according to the manufacturer’s instructions (Annexin-V Fluos, Roche Diagnostics).

CCOc1ccc(-c2nccn2-c2cc(OC)c(OC)c(OC)c2)cc1Cl [Compound 4o, 2-(3′-Chloro-4′-ethoxyphenyl)-1-(3′,4′,5′-trimethoxyphenyl)-1H-imidazole]
IC50 (HT-29): 0.4 ± 0.06 nM | lowest concentration with a rise in G2/M cells (HeLa cells; 24 h treatment): 25 nM | cells arrested in G2/M (HeLa cells; highest concentration, 24 h): more than 80% | annexin-V positive cells (Jurkat): significant accumulation of annexin-V positive cells

Reference: article PMC4877593, “Design and Synthesis of Potent in Vitro and in Vivo Anticancer Agents Based on 1-(3′,4′,5′-Trimethoxyphenyl)-2-Aryl-1H-Imidazole” (Scientific Reports, 2016)
